# Source: ChEMBL document CHEMBL1147712, “Triketoacid inhibitors of HIV-integrase: a new chemotype useful for probing the integrase pharmacophore” (Bioorg Med Chem Lett, 2006)
# Activity calls are given as the source filed them. The calls are words filed in the database; no cut-off is given here.
# What was measured:
# [1] = target: T1, Human immunodeficiency virus type 1 integrase (Human immunodeficiency virus 1, UniProt Q7ZJM1)
# [2] = target: T1, Human immunodeficiency virus type 1 integrase; remark: listed apart in the source
# Enterovirus = experiment: Antiviral activity against Rhinovirus; format: functional, organism-based
# [3] = target: T1, Human immunodeficiency virus type 1 integrase; experiment: Inhibition of HIV1 recombinant integrase in pre-integration complex
# [4] = tested on: Human immunodeficiency virus 1; experiment: Antiviral activity against HIV1 T66I, L172F mutant; format: functional, organism-based
# [5] = target: Human immunodeficiency virus type 1 reverse transcriptase (Human immunodeficiency virus 1) (UniProt Q72547); experiment: Inhibition of HIV-RT
# [6] = target: DNA polymerase I (Escherichia coli) (UniProt P00582); experiment: Inhibition of Klenow fragment
# [7] = tested on: Human immunodeficiency virus 1; experiment: Antiviral activity against HIV1; format: functional, organism-based
# [8] = target: Human immunodeficiency virus type 1 protease (Human immunodeficiency virus 1) (UniProt Q72874); experiment: Inhibition of HIV protease
# [9] = tested on: Respiratory syncytial virus; experiment: Antiviral activity against RSV; format: functional, organism-based
# Enterobacteria phage T3 = experiment: Inhibition of T3 polymerase
# [10] = tested on: Bovine viral diarrhea virus 1; experiment: Antiviral activity against BVDV; format: functional, organism-based
# [11] = target: Genome polyprotein (Bovine viral diarrhea virus (strain CP7) (BVDV) (Mucosal diseasevirus)) (UniProt Q96662); experiment: Inhibition of BVDV polymerase; conditions: Bovine viral diarrhea virus 1
# [12] = tested on: Human immunodeficiency virus 1; experiment: Antiviral activity against HIV1 NL4-3 T66I mutant; format: functional, organism-based; conditions: Human immunodeficiency virus 1, NL4-3
# [13] = tested on: Human immunodeficiency virus 1; experiment: Antiviral activity against HIV1 V151A, V165I mutant; format: functional, organism-based
# [14] = tested on: Human immunodeficiency virus 1; experiment: Antiviral activity against wild-type HIV1 NL4-3; format: functional, organism-based; conditions: Human immunodeficiency virus 1, NL4-3
SMILES,IC50 [2],other results
O=C(O)C(=O)/C=C(\O)c1c[nH]c2ccc(Cl)cc12,0.4 µM,IC50 [1]: 0.08 µM
O=C(CC(=O)c1nnn[nH]1)CC(=O)c1ccccc1Cl,125 µM,
O=C(CC(=O)C(=O)O)CC(=O)c1cccnc1,> 300 µM,
O=C(/C=C(\O)C(=O)O)CCc1ccccc1Cl,26 µM,
O=C(CC(=O)C(=O)O)CC(=O)c1ccccc1,80 µM,
O=C(/C=C(\O)C(=O)O)CCc1ccccc1,30 µM,
O=C(CC(=O)C(=O)O)CC(=O)c1ccccn1,100 µM,
O=C(CC(=O)C(=O)O)CC(=O)c1ccccc1Cl,1 µM,Activity (Enterovirus): inactive; IC50 [3]: 0.6 µM; EC50 [4]: > 200 µM; Activity [5]: inactive; Activity [6]: inactive; IC50 [1]: 0.2 µM; EC50 [7]: 120 µM; Activity [8]: inactive; Activity [9]: inactive; Activity (Enterobacteria phage T3): inactive; Activity [10]: inactive; Activity [11]: inactive; EC50 [12]: > 200 µM; EC50 [13]: > 200 µM; EC50 [14]: 55 µM
O=C(CC(=O)c1cccn1Cc1ccc(F)cc1)c1nnn[nH]1,> 125 µM,
O=C(CCc1ccccc1Cl)CC(=O)C(=O)O,9 µM,
O=C(CC(=O)C(=O)O)CC(=O)c1cccc(Cl)c1,8 µM,
O=C(/C=C(\O)C(=O)O)CCc1ccc(Cl)c(Cl)c1,,IC50 [1]: 0.01 µM

# More lines, in order of falling IC50 [2], values ahead:
IC50 [2],SMILES,other results
7 µM,O=C(CC(=O)C(=O)O)CC(=O)c1ccccc1OCc1ccccc1,
6 µM,O=C(CC(=O)C(=O)O)CC(=O)c1ccccc1C(F)(F)F,
6 µM,O=C(CC(=O)C(=O)O)CC(=O)c1ccc2ccccc2c1,
5 µM,O=C(/C=C(\O)C(=O)O)CCc1ccccc1Br,
4 µM,COc1ccccc1C(=O)CC(=O)CC(=O)C(=O)O,
3 µM,O=C(CC(=O)C(=O)O)CC(=O)c1ccccc1F,
2 µM,O=C(CC(=O)C(=O)O)CC(=O)c1ccc(-c2ccccc2)cc1,
0.6 µM,O=C(CC(=O)C(=O)O)CC(=O)c1cccc2ccccc12,
